For data set [1], the system named is human pleural mesothelioma cells NCI-H226. The experiment in a line: Cell anti-proliferation experiment (CCK8), NCI-H226. The class given is cell-based. The essentials: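 Viability was measured by CCK-8 (3 h, A450) after 3-day treatment with 0.15–333.33 nM compound in 0.1% DMSO medium. Curve-fitted IC50 was based on viability normalised to no-drug and cell-free controls.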

A short description of data set [2]: Rat pharmacokinetic experiment. The class given is in vivo. The following applies: po, male SD rats, gavage (p.o.), 10 mg/kg, plasma. The text has this: TEST EXAMPLE 3 PHARMACOKINETIC EXPERIMENT OF COMPOUNDS
Pharmacokinetic test of compounds T-32/T-105/T-253/T-272/T-273/T-277 of the present invention.
Experimental Protocol of Rat Pharmacokinetics
• (1) Required animals: healthy adult SD rats, male, 3 rats, 6-8 weeks old; weighing 200-300 g. • (2) Required equipments: analytical balance, animal weight scale, magnetic stirrer, refrigerated centrifuge, single-channel manual pipettor, etc. • (3) Required reagents: EDTA-Na2 anticoagulant, etc. 11.2 g of EDTA-Na2 was weighed and placed in a reagent flask, 100 mL of normal saline was added, and the flask was shook to completely dissolve it. After the preparation was completed, it was divided into 1.5 mL centrifuge tubes with 20 uL each for whole blood sample collection. • (3) About 10 mg of the sample to be tested was accurately weighed, 5% DMSO after conversion was added to dissolve, then 30% PEG400 and 65% (10% Hp-β-CD in PBS) were added for sonication, and vortex-mixed evenly to obtain a solution with a concentration of 1 mg/mL which is freshly prepared before use. • (4) 0.1 mL of sample was taken into a 1.5 mL centrifuge tube and stored at −80° C. for concentration analysis of drug administration solution. • (5) Animals were kept in rat cages, and fasted (not less than 10 h) from the day before the test(but water was allowed). The animals were separately weighed and marked at the tail on the day of the test. Blank blood was collected before administration. The blood was collected from tail vein. • (6) Route of administration: gavage (p.o.); dosage: 10 mg/kg; administration volume: 10 mL/kg. • (7) Operation process: Use the left hand with anti-bite gloves to catch the rat, make it stand upright, stretch the 16th gastric lavage needle from the throat of the mouth, insert the needle when feeling out no obvious resistance, and then inject the drug into the stomach. • (8) 0.2 ml of whole blood was collected from the tested animals and added into EDTA-Na2 anticoagulant tubes before administration and 0.5 h, 1 h, 2 h, 4 h, 6 h, 8 h, 12 h and 24 h after administration respectively. The tubes were reversed up and down for 3-4 times and mixed evenly, centrifuged at 4° C. at 10000 g for 5 min to separate plasma, and stored at −80° C. for testing. The blood was collected from tail vein. • (9) LC-MS/MS method was established to determine the concentration of original drug in plasma, the blood drug concentration-time curve was drawn, and the main pharmacokinetic parameters were calculated by non-compartment model. • (10) Pharmacokinetic parameters of T-32/T-105/T-253/T-272/T-273/T-277 were shown below in Table 2.

Where only a bound is given, the exact number is not on record here.

Molecule `CNS(=O)(=O)c1ccc2c(c1)c1cn(C)nc1c(=O)n2-c1ccc(C(F)(F)F)cc1` [Example T-32] had an IC50 in data set [1] of at most 1000 nM. Also, in data set [2], the AUC(0-t) came out at 22200 ng·h/mL, the Cmax turned out to be 2220 ng/mL, the MRT last was 6.88 h and the Tmax was 2.5 h.
The molecule `C[C@H](NC(=O)c1ccc2c(c1)c1nn(C)cc1c(=O)n2-c1ccc(C(F)(F)F)cc1)c1ccccn1` [Example T-105] registered a 50% inhibitory concentration (IC50) in data set [1] of at most 1000 nM. Also, in data set [2], the AUC(0-t) was 53900 ng·h/mL, the Cmax was 3870 ng/mL, the MRT last was 9.48 h and the Tmax worked out at 4 h.
For `C[C@H](NC(=O)c1ccc2c(c1)c1cnccc1c(=O)n2-c1ccc(C(F)(F)F)cc1)c1ccccn1` [Example T-253] the same measures were at most 1000 nM, 39200 ng·h/mL, 2640 ng/mL, 9.78 h and 4.7 h.
As for `C[C@H](NC(=O)c1ccc2c(c1)c1ccccc1c(=O)n2-c1ccc(C(F)(F)F)cc1)c1ccccn1` [Example T-272], the IC50 in data set [1] was at most 1000 nM. Moreover, in data set [2], the AUC(0-t) worked out at 21200 ng·h/mL, the Cmax was 1410 ng/mL, the MRT last was found to be 9.96 h and the Tmax is 5.3 h.
In data set [1], `Cc1cc(=O)n(-c2ccc(C(F)(F)F)cc2)c2ccc(C(=O)N[C@@H](C)c3ccccn3)cc12` [Example T-277] had an IC50 of at most 1000 nM. In data set [2], the AUC(0-t) was 26900 ng·h/mL, the Cmax is 2650 ng/mL, the MRT last is 7.28 h and the Tmax is 4.7 h.

In general, IC50 refers to the concentration that inhibits the measured activity by half. A high value points to weaker potency in that assay. By AUC(0-t) is commonly meant exposure summed from dosing to a finite time, without extrapolation to infinity. Low readings indicate less exposure, high ones more exposure. As usually defined, the Cmax is the peak of the concentration-time curve. By MRT last is commonly meant the average time that molecules of a dose stay in the body. The Tmax is the time from dosing to the highest level.
